According to patent publication US10053497B2, “Therapeutic epitopes and uses thereof” (OXFORD UNIVERSITY INNOVATION LIMITED, priority 2002, dated 2018):

Columns and labels:
[1] = test system: PBMC from coeliac subjects; assay: Immunomagnetic bead depletion (CD4, CD8, β7, αE) of PBMC followed by IFNγ ELISpot; type: cell-based, human; conditions: 0.1 μM
tTG = target: T1, tTG (UniProt P08587); assay: Deamidation of A-gliadin 56-75 by tTG (HPLC, amino acid sequencing); type: biochemical, guinea pig; conditions: tTG 50 μg/ml, 37° C., 2 hours
T1 construct: purchased Sigma T-5398
T1 sequence (P08587 1-690): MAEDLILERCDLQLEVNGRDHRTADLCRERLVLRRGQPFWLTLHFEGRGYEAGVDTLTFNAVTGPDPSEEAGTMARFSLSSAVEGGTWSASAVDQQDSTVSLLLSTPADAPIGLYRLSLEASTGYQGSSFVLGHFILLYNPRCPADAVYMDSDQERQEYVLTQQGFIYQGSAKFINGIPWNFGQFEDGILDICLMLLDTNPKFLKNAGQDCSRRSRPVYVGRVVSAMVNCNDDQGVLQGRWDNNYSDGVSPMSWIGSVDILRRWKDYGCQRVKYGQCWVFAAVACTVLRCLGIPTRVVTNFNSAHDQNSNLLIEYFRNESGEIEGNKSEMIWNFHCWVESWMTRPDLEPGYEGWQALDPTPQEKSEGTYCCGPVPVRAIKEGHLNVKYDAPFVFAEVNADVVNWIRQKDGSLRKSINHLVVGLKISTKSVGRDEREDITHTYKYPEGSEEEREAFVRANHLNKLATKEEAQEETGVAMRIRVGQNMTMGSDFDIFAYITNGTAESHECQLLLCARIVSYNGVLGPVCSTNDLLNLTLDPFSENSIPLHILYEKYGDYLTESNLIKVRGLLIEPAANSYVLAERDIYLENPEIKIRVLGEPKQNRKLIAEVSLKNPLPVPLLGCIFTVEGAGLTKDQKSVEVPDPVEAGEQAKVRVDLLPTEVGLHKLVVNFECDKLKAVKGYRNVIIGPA
Experimental: A-gliadin 56-75 […] (SEQ ID NO:5) (0.1 μM) was incubated with tTG (50 μg/ml) at 37° C. for 2 hours. A single product was identified and purified by reverse phase HPLC. Amino acid analysis allowed % deamidation (Q→E) of each Gln residue in A-gliadin 56-75 (SEQ ID NO:5) attributable to tTG to be calculated (vertical axis).
Coeliac disease subjects following a gluten free diet, consumed 4 slices of gluten-containing bread (50 g/slice, Sainsbury's “standard white sandwich bread”) daily for 3 or 10 days. EMA was assessed the week before and up to two months after commencing the bread challenge. […] Peptides were assessed in duplicate wells, and Mycobacterium tuberculosis purified protein derivative (PPD RT49) (Serum Institute; Copenhagen, Denmark) (20 μg/ml) was included as a positive control in all assays. […] Digestion of gliadin was verified by SDS-PAGE and protein concentration assessed. α-Chymotrypsin-digested gliadin (640 μg/ml) and synthetic gliadin peptides (15-mers: 160 μg/ml, other peptides: 0.1 mM) were individually treated with tTG (Sigma; T-5398) ([…]) in PBS+CaCl2 1 mM for 2 h at 37° C. […] Deamidation of glutamyl residues was defined as the amount (pmol) of glutamate recovered expressed as a percent of the combined amount of glutamine and glutamate recovered in cycles 2, 4, 8, 10, 15 and 17 of the amino acid sequencing. […]

[2] = test system: PBMC from coeliac disease subjects; assay: IFNγ ELISPOT with PBMC of coeliac disease subjects after bread/gluten challenge (agonist bioactivity of peptides); type: cell-based, human; conditions: for Dose response: n=8
[3] = test system: PBMC of HLA-DQ2+ coeliac subjects; assay: IFNγ ELISpot, comprehensive gliadin epitope mapping in HLA-DQ2+ coeliac subjects after gluten challenge; type: cell-based, human; conditions: after gluten challenge
Summary of the method: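 PBMC (2-8×10^5/well) from HLA-DQ2+ coeliac subjects on gluten-free diet were taken before and on day 6/7 after 3-day bread challenge. They were incubated overnight with 20mer peptides or pools (20 μg/ml each), ± tTG deamidation (tTG 64 μg/ml in wells), in RPMI/10% human AB serum. Net sfc/million minus blank; single-peptide responses as % of P04722 77-93 QE85.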

[4] = test system: PBMC from coeliac disease subjects; assay: HLA class II restriction: IFNγ ELISPOT after preincubation of PBMC with anti-HLA-DR, -DQ, -DP antibodies; type: cell-based, human; conditions: PBMC day 6, long-term GFD; tTG-gliadin 100, peptide 50, PPD 5 mcg/ml
[5] = test system: PBMC of newly diagnosed coeliac subjects; assay: IFNγ ELISpot in newly diagnosed coeliac disease: duration of gluten free diet before gluten challenge; type: cell-based, human

LQLQPFPQPELPYPQPQSFP [tTG treated A-gliadin 56-75]
IFN-g ELISPOT response of CD8 depleted PBMC, Subject 4 [1]: 29 spot forming cells per million CD8 depleted PBMC | IFN-g ELISPOT response of CD8 depleted PBMC, Subject 6 [1]: 535 spot forming cells per million CD8 depleted PBMC

LQLQPFPQPQLPYPQPQSFP [A-gliadin 56-75]
Glutamine residue deamidated by tTG (tTG): Q65 (SEQ ID NO:5) was preferentially deamidated by tTG

QLQPFPQPELPYPQPQS [A-gliadin 57-73 QE65]
Dose response ([2]; 0.025 mcg/ml): 1 % G01E maximal response | Dose response ([2]; 0.05 mcg/ml): 8 % G01E maximal response | Dose response ([2]; 0.1 mcg/ml): 10 % G01E maximal response | Dose response ([2]; 0.25 mcg/ml): 22 % G01E maximal response | Dose response ([2]; 0.5 mcg/ml): 38 % G01E maximal response | Dose response ([2]; 1 mcg/ml): 43 % G01E maximal response | Dose response ([2]; 2.5 mcg/ml): 52 % G01E maximal response | Dose response ([2]; 5 mcg/ml): 70 % G01E maximal response | Dose response ([2]; 10 mcg/ml): 81 % G01E maximal response | ELISpot response as % A-gliadin 57-73 QE65, E-substituted ([2]; 25 mcg/ml, glutamate-substituted peptide, 4 subjects): 100% | Dose response ([2]; 25 mcg/ml): 95 % G01E maximal response | ELISpot response as % A-gliadin 57-73 QE65, Wild type ([2]; 25 mcg/ml, unmodified wild type peptide, 4 subjects, blank 5 (1)%): 18 (7) % | ELISpot response as % A-gliadin 57-73 QE65, Wildtype + tTG ([2]; 25 mcg/ml, wild type treated with tTG, 4 subjects): 87 (7) % | Bioactivity % of unmodified A-gliadin 57-73 QE65 (G) ([2]; 50 mcg/ml, PBMC from 8 subjects, blank 7.1%): (G) (mean 100%, 95% CI 97-104) and blank (no peptide, bl) (mean 7.1%, | Dose response ([2]; 50 mcg/ml): 90 % G01E maximal response | Dose response ([2]; 100 mcg/ml): 85 % G01E maximal response | Mean IFNγ ELISPOT response relative to the immunodominant epitope (Glu65) ([2]; A-gliadin 57-73 with the named amino acid at position 65, 50 μg/ml, 3 subjects, day 6): 100% | Elisopt response TG ([2]; peptide treated with transglutaminase, 3 subjects, value (range), A-gliadin 57-73 E65 = 100): 100(100) | γIFN ELISpot response after gluten challenge ([2]; relative to the dominant epitope = 100%): 100% | Share of peripheral blood T cells secreting IFN-γ in response to gliadin that recognise the epitope [3]: at least 40% | ELISpot response after preincubation with anti-HLA-DQ antibody (DQ-) [4]: 22 % inhibition | ELISpot response after preincubation with anti-HLA-DR antibody (DR-) [4]: 90 % inhibition | IFNγ ELISpot response, Day 0, 1 week gluten free diet ([5]; GFD: 1 week): 1 IFNγ specific spots/million PP | IFNγ ELISpot response, Day 6 of gluten challenge, 1 week gluten free diet ([5]; GFD: 1 week): 4 IFNγ specific spots/million PP | IFNγ ELISpot response, Day 0, 2 weeks gluten free diet ([5]; GFD: 2 weeks): 2 IFNγ specific spots/million PP | IFNγ ELISpot response, Day 6 of gluten challenge, 2 weeks gluten free diet ([5]; GFD: 2 weeks): 28 IFNγ specific spots/million PP | IFNγ ELISpot response, Day 0, 8 weeks gluten free diet ([5]; GFD: 8 weeks): 1 IFNγ specific spots/million PP | IFNγ ELISpot response, Day 6 of gluten challenge, 8 weeks gluten free diet ([5]; GFD: 8 weeks): 48 IFNγ specific spots/million PP | IFNγ ELISpot response, Day 0, no gluten free diet ([5]; GFD: none): 5 IFNγ specific spots/million PP | IFNγ ELISpot response, Day 6 of gluten challenge, no gluten free diet ([5]; GFD: none): 0 IFNγ specific spots/million PP
